Experimental data from the supplement of paper PMC8671470.

What was measured:
Experiment in all cases: cell viability (% survival relative to DMSO control, bortezomib = 0%); higher = less cytotoxic
Conditions in all cases: 72 h
BV-173 = system: BV-173
Outline: (§1)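 After 72 h at 37 °C with 5% CO2, cell viability in 384-well plates was measured by CellTiter-Glo luminescence. The plates held compounds pre-printed at 1, 10, 100, 1000 or 10000 nM in duplicate, and cells from 10 AML and 5 CML lines seeded at densities titrated to linear growth. Percent survival is the duplicate mean, normalised to vehicle as 100% and a 10 µM positive control as 0%.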

KG-1 = system: KG-1
Outline: as §1

KU-812 = system: KU-812
Outline: as §1

MV4-11 = system: MV4-11
Outline: as §1

Row | SMILES | cell viability (BV-173; 1 nM) [%] | cell viability (BV-173; 10 nM) [%] | cell viability (BV-173; 100 nM) [%] | cell viability (BV-173; 1000 nM) [%] | cell viability (BV-173; 10000 nM) [%] | cell viability (KG-1; 1 nM) [%] | cell viability (KG-1; 10 nM) [%] | cell viability (KG-1; 100 nM) [%] | cell viability (KG-1; 1000 nM) [%] | cell viability (KG-1; 10000 nM) [%] | cell viability (KU-812; 1 nM) [%] | cell viability (KU-812; 10 nM) [%] | cell viability (KU-812; 100 nM) [%] | cell viability (KU-812; 1000 nM) [%] | cell viability (KU-812; 10000 nM) [%] | cell viability (MV4-11; 1 nM) [%] | cell viability (MV4-11; 10 nM) [%] | cell viability (MV4-11; 100 nM) [%] | cell viability (MV4-11; 1000 nM) [%] | cell viability (MV4-11; 10000 nM) [%]
1 | CC(/C=C1\SC(=S)N(CC(=O)O)C1=O)=C\c1ccccc1 [Epalrestat] | 101 | 95.1 | 96.7 | 106 | 112 | 108 | 101 | 116 | 104 | 111 | 101 | 91.6 | 94.9 | 95.4 | 111 | 95.3 | 85.8 | 103 | 102 | 110
2 | CCOC(=O)[C@@]1(CCCCCCOc2ccc(Cl)cc2)CO1 [Etomoxir] | 94.8 | 105 | 88.8 | 64.8 | 57.8 | 94.3 | 99.8 | 112 | 94.5 | 91.1 | 91.3 | 110 | 93.5 | 82.7 | 60.8 | 105 | 97.2 | 99 | 85.3 | 79.3
3 | Cc1c(-c2ccccc2)oc2c(C(=O)OCCN3CCCCC3)cccc2c1=O.Cl [Flavoxate] | 86.9 | 100 | 95.6 | 94.1 | 97.9 | 94.7 | 108 | 94.8 | 97 | 106 | 92.2 | 110 | 111 | 99 | 99.2 | 87.5 | 83.6 | 97.9 | 94.8 | 98.6
4 | O=C(O)CCc1ccc(NCc2cccc(Oc3ccccc3)c2)cc1 [GW9508] | 92.9 | 112 | 97.1 | 124 | 135 | 90.6 | 101 | 96.8 | 108 | 107 | 89.2 | 92.4 | 101 | 98.8 | 99.3 | 98.2 | 98.7 | 103 | 103 | 106
5 | c1ccc2c(c1)OCC(=C1NCCN1)O2 [Idazoxan] | 87.3 | 108 | 80.7 | 89.3 | 73.2 | 104 | 112 | 93.6 | 96.4 | 85.9 | 105 | 108 | 96.5 | 91.8 | 105 | 82.3 | 106 | 80.6 | 82.9 | 89.1
6 | C[C@]12O[C@H](C[C@]1(O)CO)n1c3ccccc3c3c4c(c5c6ccccc6n2c5c31)CNC4=O [Lestaurtinib] | 93.9 | 65.2 | 28.2 | 22.5 | -0.238 | 98.3 | 69.3 | 28 | 10.3 | 6.14 | 96 | 89.8 | 39.4 | 43.1 | 6 | 73.6 | 7.97 | -0.544 | 0.552 | 0.212
7 | O=C(O)c1nn(Cc2ccc(Cl)cc2Cl)c2ccccc12 [Lonidamine] | 104 | 89.4 | 108 | 90.1 | 94.5 | 97.8 | 103 | 103 | 84.7 | 71.9 | 103 | 97 | 112 | 97 | 88.8 | 78.5 | 96.2 | 88.9 | 98.1 | 106
8 | C1CCc2nnc(C34CC5CC(CC(C5)C3)C4)n2CC1 [MERCK-544] | 107 | 66.3 | 85.7 | 94.7 | 92.2 | 101 | 106 | 98.5 | 95.2 | 105 | 97.6 | 95 | 86.9 | 78.7 | 97.9 | 97.8 | 100 | 102 | 87.3 | 106
9 | CC(Cc1ccc(O)c(O)c1)C(C)Cc1ccc(O)c(O)c1 (stereo not given) [Masoprocol] | 104 | 88.1 | 101 | 104 | 5.25 | 99 | 109 | 108 | 94.8 | 48.2 | 102 | 94.3 | 102 | 102 | 59.4 | 108 | 91.6 | 92.5 | 97.2 | 9.84
10 | CC(C(=O)O)C(=O)O [Methylmalonate] | 92.5 | 89.2 | 104 | 98.3 | 96.1 | 92.5 | 90.8 | 91.2 | 88.9 | 88.4 | 90.1 | 93.7 | 97 | 90.5 | 85.6 | 94.7 | 80.3 | 107 | 97.1 | 102
11 | COc1c(C)c2c(c(O)c1C/C=C(\C)CCC(=O)O)C(=O)OC2 [Mycophenolic acid] | 104 | 98.8 | 115 | 29.9 | -0.741 | 101 | 104 | 94.5 | 70.6 | 18.5 | 94.6 | 94.5 | 104 | 51.7 | 10.9 | 103 | 94.5 | 90.7 | 26.5 | -0.47
12 | C1CCC(C(CC2CCCCN2)C2CCCCC2)CC1.O=C(O)/C=C\C(=O)O (stereo not given) [Perhexiline] | 87.1 | 96.1 | 93.8 | 98.9 | 0.141 | 91.9 | 85.2 | 100 | 95.6 | 0.46 | 96.3 | 85.1 | 94.9 | 99 | 8.47 | 100 | 101 | 95.3 | 91.8 | 0.781
13 | OCCN1CCN(CCCN2c3ccccc3Sc3ccc(Cl)cc32)CC1 [Perphenazine] | 127 | 97.3 | 89.9 | 117 | 23.2 | 105 | 93 | 97.4 | 99.7 | 43.4 | 93.8 | 93.5 | 103 | 98 | 30 | 102 | 96 | 93.4 | 92.8 | 9.41
14 | C=CCc1ccc2c(c1O)C(=O)c1ccccc1C2=O [R162] | 101 | 97 | 89.9 | 125 | 118 | 85.5 | 98 | 107 | 109 | 114 | 98.5 | 89.9 | 95.1 | 125 | 92.1 | 100 | 97.4 | 102 | 130 | 121
15 | O=C(c1ccc(OCCN2CCCCC2)cc1)c1c(-c2ccc(O)cc2)sc2cc(O)ccc12 [Raloxifene] | 93 | 95.9 | 98.2 | 107 | 92.7 | 102 | 90.6 | 92.1 | 96.5 | 75.1 | 97.1 | 95.8 | 95.3 | 93 | 70.6 | 93.9 | 102 | 85.4 | 93.3 | 58.9
16 | NC(=O)c1ncn([C@@H]2O[C@H](CO)[C@@H](O)[C@H]2O)n1 [Ribavirin] | 93.7 | 106 | 112 | 101 | 91.4 | 98.9 | 110 | 96.8 | 95.2 | 98.1 | 81.4 | 92.7 | 91.3 | 104 | 94.6 | 110 | 92.1 | 89.8 | 137 | 81.8
17 | Nc1ncnc2c1ncn2[C@@H]1O[C@H](CSCC[C@H](N)C(=O)O)[C@@H](O)[C@H]1O [S-Adenosyl Homocysteine] | 98.5 | 83.9 | 99.1 | 104 | 104 | 110 | 106 | 98.1 | 100 | 102 | 90.8 | 96.9 | 99.2 | 104 | 105 | 110 | 113 | 91.8 | 97 | 86.1
18 | CCCc1nn(C)c2c(O)nc(-c3cc(S(=O)(=O)N4CCN(C)CC4)ccc3OCC)nc12 [Sildenafil] | 87.4 | 106 | 94.4 | 109 | 92.1 | 95.9 | 97 | 95.7 | 105 | 108 | 87.5 | 104 | 91.3 | 107 | 92.1 | 99.6 | 95.1 | 101 | 98.8 | 119
19 | Cc1coc2c1C(=O)C(=O)c1c-2ccc2c(C)cccc12 [Tanshinone I] | 109 | 103 | 92 | 94 | 83.6 | 113 | 99.9 | 98 | 99.3 | 77.6 | 105 | 104 | 101 | 106 | 89.2 | 101 | 89.7 | 108 | 103 | 97.2
20 | CN(C/C=C/C#CC(C)(C)C)Cc1cccc2ccccc12 [Terbinafine] | 113 | 92 | 93.3 | 96.1 | 85.3 | 94.1 | 106 | 90.9 | 95.5 | 92.6 | 107 | 95.3 | 120 | 94.8 | 92.9 | 93.7 | 92.8 | 102 | 111 | 109
21 | CCOC(=O)N1c2ccc(C(F)(F)F)cc2[C@@H](N(Cc2cc(C(F)(F)F)cc(C(F)(F)F)c2)C(=O)OC)C[C@H]1CC [Torcetrapib] | 82.9 | 94 | 67 | 49.3 | 26.9 | 84.9 | 52.6 | 107 | 81.1 | 45.1 | 101 | 112 | 113 | 102 | 83.8 | 103 | 105 | 147 | 84.6 | 53.3
22 | Oc1cc(Cl)ccc1Oc1ccc(Cl)cc1Cl [Triclosan] | 98 | 120 | 107 | 98.4 | 105 | 111 | 89.3 | 98.3 | 109 | 143 | 98.8 | 87 | 99.2 | 98 | 57.9 | 110 | 82.5 | 104 | 93.7 | 82.1
23 | COc1cc2c(NC3CCN(C)CC3)nc(N3CCCN(C)CC3)nc2cc1OCCCN(C)C [UNC0224] | 109 | 117 | 103 | 91.6 | 83.3 | 102 | 117 | 94.1 | 96.8 | 108 | 98.7 | 107 | 89.8 | 106 | 79.5 | 97.8 | 98.7 | 95.2 | 91.4 | 64
24 | CC(C)C[C@H](NC(=O)[C@@H](O)[C@H](N)Cc1ccccc1)C(=O)O [Ubenimex] | 97.5 | 110 | 90.8 | 78.9 | 99.9 | 111 | 105 | 98.9 | 92.2 | 88.9 | 110 | 109 | 97.8 | 97.4 | 115 | 100 | 103 | 109 | 99.8 | 143
25 | O=P(O)(O)C(O)(Cn1ccnc1)P(=O)(O)O [Zoledronic acid] | 101 | 109 | 88.8 | 97 | 99 | 99.3 | 106 | 111 | 103 | 108 | 96.1 | 95.7 | 95.9 | 94.6 | 92.7 | 94.7 | 104 | 88.7 | 101 | 81.5
